Consider 23 compounds from patent EP4703359A1 (Shanghai Simr Biotechnology Co., Ltd., priority 2023, dated 2024).

For assay [1], the target named is T1, α2-GABAA receptor (Homo sapiens, UniProt P18507+P47869).
T1 construct: expressed in transfected cells
In words: Radioactive ligand (3H-flunitrazepam) competitive binding assay, BZD site of membrane proteins of α2-GABAAR-HEK293 cells. As to conditions: competition with 1 nM 3H-flunitrazepam; HEK293 membranes expressing α2, β3, γ2 subunits; Ki calculated from IC50; read-out: α2 Ki. The source says:
The α subunit, β subunit, and γ subunit are indispensable for forming a fully functional GABAA receptor. In this example, HEK293 cells stably expressing α2-GABAA receptors (α2-GABAAR) were constructed and screened respectively via liposome transfection (Felgner, P.L., et al. Proceedings of the National Academy of Sciences, 1987, 84: 7413-7417). The α2-GABAAR-HEK293 cell model co-expresses the α2 subunit (protein sequence referenced under GenBank accession number: NM_000807.4), β3 subunit (protein sequence referenced under GenBank accession number: NM_000814.5), and γ2 subunit (protein sequence referenced under GenBank accession number: NM_000816.3).
The above cell lines were subcultured. α2-GABAAR-HEK293 cells were amplified for testing the affinity of compounds to the benzodiazepine (BZD) site of GABAA receptors. Some of the α2-GABAAR-HEK293 cells in suspension during subculturing were plated on glass slides pre-treated with Poly-D-Lysine for electrophysiological testing (method reference: Patent CN 107344936 A, paragraph 0586).
The affinity of the compound for the α2-GABAA receptor was determined by competing with ^3H-flunitrazepam (isotope ^3H-labeled flunitrazepam) for binding to the BZD site of membrane proteins in HEK293 cells stably expressing human α2-GABAAR.
Membrane preparation: Cells were suspended in 50 mM Tris-HCl buffer (pH=7.4), homogenized on ice using a homogenizer for 20 seconds with 10 repetitions, and centrifuged at 4°C, 1000g for 10 minutes. The supernatant was collected, and the above steps were repeated. The supernatant was centrifuged at 4°C (33,800 × g; Thermo, rotor: A27-8x50) for 60 minutes, and the pellet was resuspended in Tris buffer (50 mM Tris-HCl, 10 mM MgCl2, 0.5 mM EDTA, 10% glycerol). The protein concentration was determined using the bicinchoninic acid (BCA) protein assay based on the copper ion reduction method (BCA kit purchased from Pierce (Annoron)). Aliquots of 1 mL were prepared and stored at -80°C.
Radioactive ligand competitive binding assay: This assay was conducted in a 200 µL system (96-well plate), containing 100 µL of cell membrane. The concentration of ^3H-flunitrazepam was 1 nM, and the concentration of the test compound ranged from […]. Flumazenil was used as a control. The low signal control well (Low Control, LC) was added with 1 µL of 2 mM flumazenil (final concentration 10 µM), while the high signal control well (High Control, HC) was added with 1 µL of dimethyl sulfoxide. The final concentration of the target membrane protein was 5 µg/well. All test compound stock solutions were prepared as 10 mM solutions in dimethyl sulfoxide. The working concentration of the samples was prepared by diluting all samples to 0.2 mM with dimethyl sulfoxide, followed by a 4-fold serial dilution to obtain a total of 8 concentration gradients. The 96-well plate was sealed with sealing film and then incubated on a shaker at room temperature for 1 hour. The GF/C filter plate was also soaked with a soaking buffer (0.3% PEI (polyethyleneimine, purchased from: Sigma-Aldrich, model: P314), stored at 4°C) for at least 0.5 hours. After the incubation was completed, the mixture was collected onto a GF/C filter plate using a cell harvester and washed four times with wash buffer (50 mM Tris-HCl, pH 7.4, stored at 4°C). After drying in a 50°C oven for 1 hour, the dried GF/C filter plate was sealed at the bottom with a film. The residual radioactivity on the filter membrane was detected using liquid scintillation counting. Each well was filled with 50 µL of scintillation fluid and sealed. Readings were taken using a Microbeta^2 (microplate counter, purchased from PerkinElmer, model: CNLL0153). The inhibitory activity of the test sample on the binding of ^3H-flunitrazepam to GABAA receptor membrane protein was calculated. […]

Assay [2] concerns the target T1, α2-GABAA receptor. In words: Whole-cell patch-clamp electrophysiology, positive allosteric modulatory activity in α2-GABAAR-HEK293 cells. Format: cell-based. The following applies: compound 100 nM; GABA 0.10 to 0.11 µM (approximately EC7-8); normalized to reference compound CVL-865 (= 100%); read-out: α2-GABAAR Positive allosteric modulatory activity. A digest of the protocol:
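HEK293 cells stably co-expressing α2β3γ2 GABAA receptor, whole-cell patch clamp at -60 mV. Compounds at 100 nM final applied with GABA 0.10–0.11 µM (~EC7-8) after GABA-only current stabilized. […]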

With `CCCNC(=O)c1nc2c(-c3cccc(OC)c3F)cccn2c1N` [Example 63, 3-Amino-8-(2-fluoro-3-methoxyphenyl)-N-propylimidazo[1,2-a]pyridine-2-carboxamide], the Ki (in general, the dissociation constant of the complex between target and ligand, obtained from inhibition or displacement) at α2-GABAA receptor [1] is 10.2 nM. Also, the Emax at 0.1 µM on α2-GABAA receptor [2] was determined as 71%.
The matching figures for `CCCNC(=O)c1nc2c(-c3cccc(C)c3F)cccn2c1N` [Example 64, 3-Amino-8-(2-fluoro-3-methylphenyl)-N-propylimidazo[1,2-a]pyridine-2-carboxamide]: 3.37 nM and 93%.
For `CCCNC(=O)c1nc2c(-c3cc(C(F)F)ccc3OC)cccn2c1N` [Example 67, 3-Amino-8-(5-(difluoromethyl)-2-methoxyphenyl)-N-propylimidazo[1,2-a]pyridine-2-carboxamide] the same measures were 15 nM and 138%.
For `CCCNC(=O)c1nc2c(-c3cc(C4CC4)ccc3OC)cccn2c1N` [Example 68, 3-Amino-8-(5-cyclopropyl-2-methoxyphenyl)-N-propylimidazo[1,2-a]pyridine-2-carboxamide] the same measures were 51 nM and 92%.
Regarding `CCCNC(=O)c1nc2c(-c3cc(OC)ccc3OC)cccn2c1N` [Example 69, 3-Amino-8-(2,5-dimethoxyphenyl)-N-propylimidazo[1,2-a]pyridine-2-carboxamide], the Ki at α2-GABAA receptor [1] was 30.8 nM. Moreover, at α2-GABAA receptor [2], the Emax at 0.1 µM was 70%.
The matching figures for `CCCNC(=O)c1nc2c(-c3cc(-c4cnnc5c4ncn5CC)ccc3OC)cccn2c1N` [Example 71, 3-Amino-8-(5-(7-ethyl-7H-imidazo[4,5-c]pyridazin-4-yl)-2-methoxyphenyl)-N-propylimidazo[1,2-a]pyridine-2-carboxamide]: 7.43 nM and 130%.
For `CCCNC(=O)c1nc2c(-c3c(Cl)cccc3OC)cccn2c1N` [Example 72, 3-Amino-8-(2-chloro-6-methoxyphenyl)-N-propylimidazo[1,2-a]pyridine-2-carboxamide] the same measures were 95 nM and 44%.
The matching figures for `CCCNC(=O)c1nc2c(-c3c(OC)ccc(F)c3F)cccn2c1N` [Example 76, 3-Amino-8-(2,3-difluoro-6-methoxyphenyl)-N-propylimidazo[1,2-a]pyridine-2-carboxamide]: 12.9 nM and 101%.
As for `CCCNC(=O)c1nc2c(-c3c(OC)ccc(C)c3F)cccn2c1N` [Example 77, 3-Amino-8-(2-fluoro-6-methoxy-3-methylphenyl)-N-propylimidazo[1,2-a]pyridine-2-carboxamide], the inhibition constant (Ki) at α2-GABAA receptor [1] was 5.17 nM. At α2-GABAA receptor [2], the Emax at 0.1 µM came out at 126%.
For `CCCNC(=O)c1nc2c(-c3c(F)ccc(C)c3OC)cccn2c1N` [Example 78, 3-Amino-8-(6-fluoro-2-methoxy-3-methylphenyl)-N-propylimidazo[1,2-a]pyridine-2-carboxamide] the same measures were 31.7 nM and 74%.
Turning to `CCCNC(=O)c1nc2c(-c3c(F)ccc(F)c3OC)cccn2c1N` [Example 79, 3-Amino-8-(3,6-difluoro-2-methoxyphenyl)-N-propylimidazo[1,2-a]pyridine-2-carboxamide], the Ki at α2-GABAA receptor [1] is 40.1 nM. In addition, the Emax at 0.1 µM on α2-GABAA receptor [2] was determined as 71%.
For `CCCNC(=O)c1nc2c(-c3cccnc3OC)cccn2c1N` [Example 82, 3-Amino-8-(2-methoxypyridin-3-yl)-N-propylimidazo[1,2-a]pyridine-2-carboxamide] the same measures were 22.3 nM and 93%.
For `CCCNC(=O)c1nc2c(-c3cc(C)cnc3OC)cccn2c1N` [Example 83, 3-Amino-8-(2-methoxy-5-methylpyridin-3-yl)-N-propylimidazo[1,2-a]pyridine-2-carboxamide] the same measures were 5.9 nM and 164%.
For the compound `CCCNC(=O)c1nc2c(-c3cc(F)cnc3OC)cccn2c1N` [Example 84, 3-Amino-8-(5-fluoro-2-methoxypyridin-3-yl)-N-propylimidazo[1,2-a]pyridine-2-carboxamide], at α2-GABAA receptor [1], the Ki was 42 nM. The Emax at 0.1 µM at α2-GABAA receptor [2] worked out at 133%.
For `CCCNC(=O)c1nc2c(-c3cnccc3OC)cccn2c1N` [Example 85, 3-Amino-8-(4-methoxypyridin-3-yl)-N-propylimidazo[1,2-a]pyridine-2-carboxamide] the same measures were 17.2 nM and 100%.
For `CCCNC(=O)c1nc2c(-c3cc4c(cc3OC)N(C)C(=O)CO4)cccn2c1N` [Example 91, 3-Amino-8-(6-methoxy-4-methyl-3-oxo-3,4-dihydro-2H-benzo[b][1,4]oxazin-7-yl)-N-propylimidazo[1,2-a]pyridine-2-carboxamide] the same measures were 27 nM and 93%.
Take `CCCNC(=O)c1nc2c(-c3c(F)ccc4c3oc(=O)n4C)cccn2c1N` [Example 105, 3-Amino-8-(6-fluoro-3-methyl-2-oxo-2,3-dihydrobenzo[d]oxazol-7-yl)-N-propylimidazo [1,2-a] pyridine-2-carboxamide]: the Ki on α2-GABAA receptor [1] is 39.6 nM. Further, the Emax at 0.1 µM on α2-GABAA receptor [2] is 160%.
The matching figures for `CCCNC(=O)c1nc2c(-c3c(F)cccc3OC)c(F)ccn2c1N` [Example 122, 3-Amino-7-fluoro-8-(2-fluoro-6-methoxyphenyl)-N-propylimidazo[1,2-a]pyridine-2-carboxamide]: 11.4 nM and 105%.
The matching figures for `CCCNC(=O)c1nc2c(-c3cc4c(cc3OC)N(C)C(=O)CO4)c(F)ccn2c1N` [Example 123, 3-Amino-7-fluoro-8-(6-methoxy-4-methyl-3-oxo-3,4-dihydro-2H-benzo[b][1,4]oxazin-7-yl)-N-propylimidazo[1,2-a]pyridine-2-carboxamide]: 4.97 nM and 71%.
The matching figures for `CCCNC(=O)c1nc2c(-c3c(F)cccc3OC)nccn2c1N` [Example 135, 3-amino-8-(2-fluoro-6-methoxyphenyl)-N-propylimidazo[1,2-a]pyrazine-2-carboxamide]: 81.1 nM and 60%.
As to `[2H]c1ccc(OC)c(-c2cccn3c(N)c(C(=O)NCCC)nc23)c1F` [Example 136, 3-Amino-8-(2-fluoro-6-methoxyphenyl-3-d)-N-propylimidazo[1,2-a]pyridine-2-carboxamide], at α2-GABAA receptor [1], the Ki is 17.6 nM. Further, the Emax at 0.1 µM on α2-GABAA receptor [2] stood at 91%.
The matching figures for `[2H]c1ccc(F)c(-c2cccn3c(N)c(C(=O)NCCC)nc23)c1OC` [Example 137, 3-Amino-8-(2-fluoro-6-methoxyphenyl-5-d)-N-propylimidazo[1,2-a]pyridine-2-carboxamide]: 13.5 nM and 97%.
For `[2H]C([2H])([2H])Oc1cccc(F)c1-c1cccn2c(N)c(C(=O)NCCC)nc12` [Example 138, 3-Amino-8-(2-fluoro-6-(methoxy-d3)phenyl)-N-propylimidazo[1,2-a]pyridine-2-carboxamide] the same measures were 11.1 nM and 77%.
